One compound from patent publication US12636292B2, “Method and composition for reversing and/or inhibiting atherosclerosis” (ARJIL BIOTECH HOLDING COMPANY LIMITED, priority 2019, dated 2026) can be followed below.

The test system of one test is RAW264.7 macrophages. Nature of the test: Cellular migration assay (transwell). Type of test: cell-based. The conditions noted are these: 48 h. On the procedure: RAW264.7 macrophage was purchased from the Hsin-Chu Food Industry Development Institute Cell Bank (FIRDI, Cat no: BCRC-60001). The cell culture medium contains high-glucose DMEM (Gibco BRL, Grand Island, NY, USA), 10% FBS, 1.5 g/L sodium bicarbonate, 0.11 g/L sodium pyruvate, 4 mM L-glutamine, 100 U/mL penicillin, and 100 μg/mL streptomycin. These cells were maintained in a humidified incubator at 37° C. and 5% CO2. After collecting the cells with a spatula, for each 24-well culture plate, all cell densities were adjusted to 1×10^5 cells per well for migration assays.
We used a cellular migration assay to examine the cellular migration ability of RAW 264.7 macrophages toward vascular endothelial cells with high-fat damage. The cellular migration assay has been clearly described in a previous report (Hwang et al., 2021). Transwells (Corning, New York, NY, USA) with 8.0 μm pore size were used in this experiment for cell migration assays. In total, 1×10^5 RAW264.7 macrophage, labeled with the red fluorescent dye of 1,1′-Dioctadecyl-6,6′-Di(4-Sulfophenyl) (SP-Di1C18(3)), was added to the upper layer of transwell after 48 h. […] Images were taken with a fluorescence microscope (Leica Microsystems, Wetzlar, Germany), and analysis was performed using Leica Application Suite software (LAS) V4.12 s (Leica Microsystems, Wetzlar, Germany) after 48 h of culture.

The next test concerns CD36. Nature of the test: Immunofluorescence staining of CD36 in vascular endothelial cells. Format: cell-based, mouse. Conditions: 20 μg/mL with 0.75 mM palm acid oil. On the procedure: (§1) Vascular endothelial cells (SVEC4-10) were purchased from the Cell Bank of Hsin-Chu Food Industry Development Institute (FIRDI, Cat no: BCRC-60220). SVEC4-10 cells were cultured in high-glucose DMEM (Dulbecco's Modified Eagle Medium) (Gibco BRL, Grand Island, NY, USA) and supplemented with 10% Fetal Bovine Serum (FBS) (HyClone, Logan, UT, USA), 1.5 g/L sodium bicarbonate, 0.11 g/L sodium pyruvate, 4 mM L-glutamine, 100 U/mL penicillin, and 100 μg/mL streptomycin (Gibco BRL, Grand Island, NY, USA).
(§2) These cells were grown in a culture medium and maintained in a humidified incubator at 37° C. and 5% CO2. […]
(§3) We used immunofluorescence staining to examine expressions of KLF4 and CD36. […] Note that this step needs to be protected from light at the beginning Nuclei were stained with 1 μg/mL diamino-2-phenilindole (DAPI) (D3286, Sigma-Aldrich Co., St. Louis, MO, USA) for 10 min at room temperature after washing three times with PBS and mounted with a fluorescent protectant-containing adhesive to reduce fluorescence decay. Fluorescent images were obtained using a Leica DM IRB inverted fluorescence microscope (Leica Microsystems, Wetzlar, Germany), and analysis was performed using Leica Application Suite software (LAS) V4.12 s (Leica Microsystems, Wetzlar, Germany). The Rhodamine fluorescence-labeled cytoskeleton was visualized at 565 nm by exciting cells at 540 nm. […]

Another test deals with KLF4. Put plainly: Immunofluorescence staining of KLF4 in vascular endothelial cells. Type of test: cell-based, mouse. The conditions noted are these: 20 μg/mL with 0.75 mM palm acid oil; p<0.01. On the procedure: as §1, §2, §3

SMILES strings stand for the structures.

`C=C(CC[C@@H](C)[C@H]1CC[C@H]2C3=C(C(=O)C[C@]12C)[C@@]1(C)CC[C@H](O)[C@](C)(O)C1CC3O)C(C)C(=O)O` (stereo partly drawn) [antcin K, 3a,4b,7b-tri-hydroxy4a-methylergosta-8,24(28)-dien-11-on-26-oic acid]: the “migration of RAW264.7 macrophages to palm acid oil-treated vascular endothelial cells” value in the test with RAW264.7 macrophages is “enhanced”. Besides, in the test on CD36, the “expression of CD36 in palm oil-treated vascular endothelial cells” value was “decreased”. The “expression of KLF4 in palm acid oil-treated vascular endothelial cells” value in the test on KLF4 was “significantly increased”.
